From article PMC12064818, “A general assay platform to study protein pharmacology using ligand-dependent structural dynamics” (Nature Communications, 2025)
Where two headings read alike, the source gives them in different places.

How the values were obtained:
P. pyralis FLuc = P. pyralis FLuc (Photinus pyralis, UniProt P08659); experiment: FLuc enzymatic luminescence assay, P. pyralis FLuc; type: biochemical; details: FLuc enzymatic assay; for IC50: read-out: IC50 or SDR50 (mM) FLuc E
Description: The enzyme activity of FLuc-N-HiBiT, FLuc-C-HiBiT, and FLuc-C-NLuc was measured similar to P. pyralis firefly luciferase (FLuc) as previously described. […] Compounds and controls were added to each plate as described in Supplementary Data 8 with a Hornet pintool system (Wako Automation). Compounds were incubated with respective enzymes for 30–60 min at room temperature protected from light and covered by solid metal lid to prevent evaporation. […] Luciferin was incubated with FLuc enzyme for 5 min before FLuc activity was then measured on a ViewLux CCD imager (PerkinElmer), with exposure times up to ten seconds with medium to high gain settings. Data were normalized to average no enzyme control as 100% enzyme inhibition and average DMSO neutral control. See Supplementary Table 4 for additional details.
Assays were run in the presence (solid symbols) or absence
(open symbols) of 10 µM ATP. Corresponding SMIL E S for NC GC IDs and source data are provided in
Supplementary Data 3 and as a Source Data file. 10
Supplementary Table 4. Protocol for Firefly luciferase (FLuc) and NanoLuc (NLuc) enzymatic
Supplementary Table 4: Protocol for Firefly luciferase (FLuc) and NanoLuc (NLuc) enzym atic lum inescence assay
Firefly luciferase (FLuc) enzym atic lum inescence assay
Sequence Param eter Value Description
No enzym e control (colum n 1) and enzym e solution (1- 10 nM FLuc enzym e) in FLuc assay
1 Reagent 4 µLbuffer; white/solid bottom , m edium bind, high base plates (Greiner), dispensed with BioRaptr
com pounds transferred to respective colum ns with Pintool
2b Test Com pounds 23 nLconcentration range) in colum ns 5- 48; com pounds transferred to respective wells with
3 Incubation 30 m in Incubate enzym e + com pounds at am bient tem p for 30 m in, protected from light
4 Reagent 3 µLAdd 3 µL of D-luciferin substrate solution to each well (final concentration 10 µM); dispensed
(§1) 5 Detector ViewLux Read plate lum inescence (Exposure = 1- 10 sec; Gain = Medium -high; Speed = Slow;
Dispensing solution was diluted in 1X PBS, pH 7.4. […]

[1] = molecular target: FLuc-C-NLuc (firefly luciferase) (Photinus pyralis, UniProt P08659, form not given/L550V); experiment: SDR assay, FLuc-C-NLuc; details: - ATP
NLuc = molecular target: T1, NLuc (Oplophorus gracilirostris, UniProt Q9GV45, A31E/A60N/A81I/F95D/I117V/K70R/L54V/L99Q/M102K/N193R/P142E/Q151K/Q38R/Q45L/V71I/Y165I); type: biochemical; details: - ATP
T1 construct: His tag (inferred from IMAC purification); made in house; host or cells: E. coli
Description: Compounds and controls were added to plates as described in Supplementary Data 8. Nano-Glo luciferase assay reagent (Promega) was prepared fresh according to manufacturer’s protocol, filtered and added at 3 μL per well across assay plates with a BioRaptr2 dispenser. Enzyme was incubated with Nano-Glo reagent for 10 min and NLuc luminescence was read on a ViewLux CCD imager (PerkinElmer), with 1 s exposure with medium gain and 2x binning. Data were normalized to average no enzyme control as 100% enzyme inhibition and average DMSO neutral control. See Supplementary Table 4 for additional details.
Supplementary Table 4. […]
Sequence Param eter Value Description […]
as §1
Dispensing solution was diluted in 1X PBS, pH 7.4.
NanoLuc luciferase (NLuc) enzym atic lum inescence assay […]
Nano-Glo luciferase assay reagent (Prom ega, Cat # N1120) prepared according to m anufacturer’s recom m endations,
4 com ponents stored at -30 °C until use, and reagent prepared fresh for each assay.
syringe filter prior to dispense.

[2] = molecular target: FLuc-C-HiBiT (firefly luciferase) (Photinus pyralis, UniProt P08659, form not given/L550V); experiment: SDR assay, FLuc-C-HiBiT; details: SDR max. response, clade S
Chain of FLuc-C-HiBiT (firefly luciferase) (P08659 2-550 L550V, form open): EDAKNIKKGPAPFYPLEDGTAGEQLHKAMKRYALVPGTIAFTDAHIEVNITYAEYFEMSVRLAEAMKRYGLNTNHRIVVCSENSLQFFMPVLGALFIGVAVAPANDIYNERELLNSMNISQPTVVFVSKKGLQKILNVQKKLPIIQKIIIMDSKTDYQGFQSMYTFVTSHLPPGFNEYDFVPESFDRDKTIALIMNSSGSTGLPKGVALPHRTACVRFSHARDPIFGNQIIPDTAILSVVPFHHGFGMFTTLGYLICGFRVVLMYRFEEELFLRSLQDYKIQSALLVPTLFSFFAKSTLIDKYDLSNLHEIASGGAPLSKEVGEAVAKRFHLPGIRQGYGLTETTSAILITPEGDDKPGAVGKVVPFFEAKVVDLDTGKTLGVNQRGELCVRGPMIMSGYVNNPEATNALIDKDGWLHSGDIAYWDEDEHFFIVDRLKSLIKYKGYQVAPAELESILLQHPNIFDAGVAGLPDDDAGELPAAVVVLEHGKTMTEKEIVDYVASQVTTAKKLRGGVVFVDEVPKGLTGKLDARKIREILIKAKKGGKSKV

Chain of FLuc-C-NLuc (firefly luciferase) (P08659 2-550 L550V, form open): as above
T1 sequence (Q9GV45 other isoform, or with tags, fused parts or gaps with the stated changes): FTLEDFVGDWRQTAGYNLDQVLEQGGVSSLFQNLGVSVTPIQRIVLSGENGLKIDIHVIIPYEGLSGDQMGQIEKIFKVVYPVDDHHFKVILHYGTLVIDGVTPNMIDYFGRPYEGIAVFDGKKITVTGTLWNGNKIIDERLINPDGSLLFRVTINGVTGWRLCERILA
Chain of P. pyralis FLuc (P08659 whole entry): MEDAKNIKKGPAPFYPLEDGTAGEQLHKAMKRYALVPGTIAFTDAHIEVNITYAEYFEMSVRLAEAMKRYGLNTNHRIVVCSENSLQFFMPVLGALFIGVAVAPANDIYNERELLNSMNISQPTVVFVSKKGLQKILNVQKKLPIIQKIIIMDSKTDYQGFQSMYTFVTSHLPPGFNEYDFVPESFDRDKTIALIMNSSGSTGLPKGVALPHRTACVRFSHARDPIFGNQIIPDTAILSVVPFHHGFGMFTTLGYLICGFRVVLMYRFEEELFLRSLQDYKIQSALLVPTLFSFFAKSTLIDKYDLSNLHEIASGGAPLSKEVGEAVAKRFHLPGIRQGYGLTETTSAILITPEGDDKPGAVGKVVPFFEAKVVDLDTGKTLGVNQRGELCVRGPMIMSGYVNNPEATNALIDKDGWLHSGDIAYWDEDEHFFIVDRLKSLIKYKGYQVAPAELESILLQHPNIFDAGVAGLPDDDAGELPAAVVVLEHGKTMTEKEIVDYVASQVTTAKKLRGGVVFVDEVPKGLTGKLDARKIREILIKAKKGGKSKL

| Compound | Efficacy (%) FLuc E (P. pyralis FLuc; Clade S follow-up) [%] | pIC50 or pSDR50 FLuc E (P. pyralis FLuc; Clade S follow-up) | IC50 (P. pyralis FLuc; Clade S follow-up) [mM] | Efficacy (%) FLuc-C-NLuc SDR (-ATP) [1] [%] | Efficacy (%) NLuc (- ATP) (NLuc) [%] | % Activity (max response, + ATP) [2] [%] | % Activity (max response, - ATP) [2] [%] | pIC50 or pSDR50 FLuc E (P. pyralis FLuc) | IC50 (P. pyralis FLuc) [mM] |
| --- | --- | --- | --- | --- | --- | --- | --- | --- | --- |
| O=C(NCc1ccccc1)C1CCN(C(=O)c2ncn3c2COC(c2ccc(Cl)cc2)C3)CC1 (stereo not drawn) [NCGC00449849-01] | -35.02 | 4.91 | 0.0124 | 0.00 | 0.00 | 28.50 | 0.00 | – | – |
| COc1ccc(CNC(=O)C2CCN(C(=O)c3ncn4c3COC(c3ccccc3)C4)CC2)cc1 (stereo not drawn) [NCGC00449778-01] | -88.62 | – | – | 0.00 | 0.00 | 301.65 | 0.00 | 5.01 | 0.00988 |
| O=C(NC1CC1)C1CCN(C(=O)c2ncn3c2COC(c2ccc(F)cc2)C3)CC1 (stereo not drawn) [NCGC00449806-01] | -31.66 | – | – | 0.00 | 0.00 | 47.67 | 0.00 | 4.91 | 0.0124 |
| Cc1ccc(C2Cn3cnc(C(=O)N4CCC(C(=O)NCCc5ccccc5)CC4)c3CO2)cc1 (stereo not drawn) [NCGC00449896-01] | -32.41 | 4.91 | 0.0124 | 0.00 | 10.33 | 46.98 | 0.00 | – | – |
| O=C(NCCC1=CCCCC1)C1CCN(C(=O)c2ncn3c2COC(c2ccc(F)cc2)C3)CC1 (stereo not drawn) [NCGC00449811-01] | -41.16 | – | – | 0.00 | 0.00 | 50.67 | 0.00 | 5.01 | 0.00988 |
| O=C(NC1CCCCCCC1)C1CCN(C(=O)c2ncn3c2COC(c2ccccc2)C3)CC1 (stereo not drawn) [NCGC00449770-01] | -92.12 | – | – | 0.00 | 0.00 | 338.48 | 0.00 | 5.16 | 0.00699 |
| COc1ccc(C2Cn3cnc(C(=O)N4CCC(C(=O)NCc5ccc(C)cc5)CC4)c3CO2)cc1 (stereo not drawn) [NCGC00449866-01] | 0.00 | – | – | 0.00 | -22.39 | 0.00 | -10.00 | – | – |
| COc1ccc(C2Cn3cnc(C(=O)N4CCC(C(=O)NC5CCC(C)CC5)CC4)c3CO2)cc1 (stereo not drawn) [NCGC00449861-01] | 0.00 | – | – | 0.00 | 0.00 | 14.50 | 0.00 | – | – |
| Cc1ccc(C2Cn3cnc(C(=O)N4CCC(C(=O)NCc5ccccc5Cl)CC4)c3CO2)cc1 (stereo not drawn) [NCGC00449891-01] | -50.12 | 4.96 | 0.0111 | 0.00 | 0.00 | 113.62 | 0.00 | – | – |
| CCCCNC(=O)C1CCN(C(=O)c2ncn3c2COC(c2ccc(OC)cc2)C3)CC1 (stereo not drawn) [NCGC00449864-01] | -10.96 | – | – | 0.00 | 0.00 | 0.00 | 0.00 | – | – |
| CC(C)CNC(=O)C1CCN(C(=O)c2ncn3c2COC(c2ccc(F)cc2)C3)CC1 (stereo not drawn) [NCGC00449805-01] | -24.33 | – | – | 0.00 | 0.00 | 48.51 | 0.00 | – | – |
| Cc1ccc(C2Cn3cnc(C(=O)N4CCC(C(=O)NCCC5=CCCCC5)CC4)c3CO2)cc1 (stereo not drawn) [NCGC00449883-01] | -54.72 | 5.01 | 0.00988 | 0.00 | 0.00 | 75.13 | 0.00 | – | – |
| O=C(NCc1ccc(F)cc1F)C1CCN(C(=O)c2ncn3c2COC(c2ccc(F)cc2)C3)CC1 (stereo not drawn) [NCGC00449819-01] | -12.89 | – | – | 0.00 | 0.00 | 18.59 | 0.00 | – | – |
| COc1ccc(C2Cn3cnc(C(=O)N4CCC(C(=O)NC5CCCCC5)CC4)c3CO2)cc1 (stereo not drawn) [NCGC00449860-01] | 0.00 | – | – | 0.00 | 0.00 | 0.00 | 0.00 | – | – |
| O=C(NC1CC1)C1CCN(C(=O)c2ncn3c2COC(c2ccc(Cl)cc2)C3)CC1 (stereo not drawn) [NCGC00449842-01] | -28.68 | – | – | 0.00 | 0.00 | 18.50 | 0.00 | – | – |
| Cc1ccc(C2Cn3cnc(C(=O)N4CCC(C(=O)NCc5ccc(F)cc5)CC4)c3CO2)cc1 (stereo not drawn) [NCGC00449889-01] | -57.95 | 5.01 | 0.00988 | 0.00 | 0.00 | 136.15 | 0.00 | – | – |
| O=C(NCC1CCCCC1)C1CCN(C(=O)c2ncn3c2COC(c2ccc(F)cc2)C3)CC1 (stereo not drawn) [NCGC00449830-01] | 0.00 | – | – | 0.00 | 0.00 | 0.00 | 0.00 | – | – |
| Cc1ccccc1CNC(=O)C1CCN(C(=O)c2ncn3c2COC(c2ccccc2)C3)CC1 (stereo not drawn) [NCGC00449798-01] | -85.12 | – | – | 0.00 | 0.00 | 370.72 | 0.00 | 5.26 | 0.00555 |
| CC(C)c1ccc(NC(=O)C2CCN(C(=O)c3ncn4c3COC(c3ccc(F)cc3)C4)CC2)cc1 (stereo not drawn) [NCGC00449927-01] | -23.88 | 4.86 | 0.0139 | 0.00 | 0.00 | 35.93 | 0.00 | – | – |
| O=C(NC1CCCCC1)C1CCN(C(=O)c2ncn3c2COC(c2ccc(F)cc2)C3)CC1 (stereo not drawn) [NCGC00449807-01] | -25.30 | – | – | 0.00 | 0.00 | 42.77 | 0.00 | 4.96 | 0.0111 |
| Cc1ccc(CNC(=O)C2CCN(C(=O)c3ncn4c3COC(c3ccc(F)cc3)C4)CC2)cc1 (stereo not drawn) [NCGC00449814-01] | -11.84 | – | – | 0.00 | 0.00 | 17.69 | 0.00 | – | – |
